Values quoted from earlier work as cited in US20210220286A1, “PHARMACEUTICAL COMPOSITION COMPRISING AMORPHOUS SUNITINIB” (SYNTHON B.V., priority 2018, published 2021).

Details: WO03016305, cited from earlier work; for stability of polymorphic form: ambient conditions

SMILES | stability of polymorphic form | hygroscopicity of polymorphic form | solubility of polymorphic form (compared with form I)
CCN(CC)CCNC(=O)c1c(C)[nH]c(/C=C2\C(=O)Nc3ccc(F)cc32)c1C [Form I, sunitinib L-malate] | most stable form |  | 
CCN(CC)CCNC(=O)c1c(C)[nH]c(/C=C2\C(=O)Nc3ccc(F)cc32)c1C [Form II, sunitinib L-malate] | less stable | hygroscopic | more soluble
